The values below are quoted from earlier work in US20010043957A1, “Lypolytic composition” (priority 2000, published 2001).

For data set [1] the following is noted: per day, most healthy people, caffeine and related methylxanthines.
The conditions of data set [2]: group of animals.

For `Cn1c(=O)c2c(ncn2C)n(C)c1=O` [caffeine], the “amount safely consumed without adverse reactions” value in data set [1] is “up to 200 mg”. In addition, in data set [2], the “loss in body weight” value is given as “not significant loss in body weight”.
Consider `CN[C@@H](C)[C@H](O)c1ccccc1` [ephedrine], for which, in data set [2], the “loss in body fat” value was 42% and the “loss in body weight” value is 14%.
